This is an account of results in patent US9957265B2, “N-(2-cyano heterocyclyl) pyrazolo pyridones as janus kinase inhibitors” (Merck Sharp & Dohme Corp., priority 2013, dated 2018).

Like-named read-outs stand apart in the source and are kept apart here.

One assay addresses JAK2 (Homo sapiens (Human), UniProt O60674). Briefly: Jak Biochemical HTRF Assay (JAK2).
A further assay addresses JAK1 (Homo sapiens (Human), UniProt P23458). Briefly: Jak Biochemical HTRF Assay (JAK1). The settings on record: recombinant GST-tagged catalytic domain, [ATP] 31.8 μM, unit not given (compound concentrations tested given in nM). From the text:
Jak Biochemical HTRF Assay Protocol
Subsequent reagent additions employed an Agilent Bravo.

Where [1] appears, read: JAK2 IC50, recombinant GST-tagged catalytic domain, [ATP] 8.5 μM, unit not given (compound concentrations tested given in nM).

JAK2, sequence (O60674 849-1124): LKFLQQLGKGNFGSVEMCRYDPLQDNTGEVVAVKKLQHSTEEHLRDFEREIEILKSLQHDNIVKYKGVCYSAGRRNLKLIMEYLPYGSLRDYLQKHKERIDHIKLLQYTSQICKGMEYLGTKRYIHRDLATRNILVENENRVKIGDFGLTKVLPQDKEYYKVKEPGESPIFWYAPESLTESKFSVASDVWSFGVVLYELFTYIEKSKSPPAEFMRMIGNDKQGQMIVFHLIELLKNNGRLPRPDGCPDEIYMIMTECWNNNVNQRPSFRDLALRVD
JAK1, sequence (P23458 875-1153): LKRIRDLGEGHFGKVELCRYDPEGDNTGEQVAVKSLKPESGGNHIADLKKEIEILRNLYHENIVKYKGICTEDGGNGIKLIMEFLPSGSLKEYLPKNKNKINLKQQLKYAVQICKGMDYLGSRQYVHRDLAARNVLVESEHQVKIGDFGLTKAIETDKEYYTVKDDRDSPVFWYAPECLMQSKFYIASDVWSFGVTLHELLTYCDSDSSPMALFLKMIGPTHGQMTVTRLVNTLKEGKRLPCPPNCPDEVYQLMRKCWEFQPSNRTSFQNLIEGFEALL

Regarding `CN(C)C(c1ccc(Nc2nn([C@H]3COCC[C@@H]3C#N)c3cc[nH]c(=O)c23)cc1)C(F)(F)F` (single isomer, unassigned) [Example 1-58, (3R,4S)-3-[3-({4-[(1R or 1S)-1-(dimethylamino)-2,2,2-trifluoroethyl]phenyl}amino)-4-oxo-4,5-dihydro-1H-pyrazolo[4,3-c]pyridin-1-yl]tetrahydro-2H-pyran-4-carbonitrile], the values for the IC50 on JAK2 (setting [1]) and at JAK1 were 0.13 nM and 0.07 nM, respectively.
Taken in the same sequence, the figures for `CN(C)C(c1ccc(Nc2nn([C@H]3COCC[C@@H]3C#N)c3cc[nH]c(=O)c23)cc1)C(F)(F)F` (single isomer, unassigned) [Example 1-59, (3R,4S)-3-[3-({4-[(1S or 1R)-1-(dimethylamino)-2,2,2-trifluoroethyl]phenyl}amino)-4-oxo-4,5-dihydro-1H-pyrazolo[4,3-c]pyridin-1-yl]tetrahydro-2H-pyran-4-carbonitrile] were 0.08 nM and 0.05 nM.
Taken in the same sequence, the figures for `CC1CN(S(=O)(=O)c2ccc(Nc3nn([C@H]4COCC[C@@H]4C#N)c4cc[nH]c(=O)c34)cc2)CCO1` (single isomer, unassigned) [Example 1-74, (3R,4S)-3-{3-[(4-{[(2S or 2R)-2-methylmorpholin-4-yl]sulfonyl}phenyl)amino]-4-oxo-4,5-dihydro-1H-pyrazolo[4,3-c]pyridin-1-yl}tetrahydro-2H-pyran-4-carbonitrile] were 0.52 nM and 0.18 nM.
In the same order, the values of `CC1CN(S(=O)(=O)c2ccc(Nc3nn([C@H]4COCC[C@@H]4C#N)c4cc[nH]c(=O)c34)cc2)CCO1` (single isomer, unassigned) [Example 1-75, (3R,4S)-3-{3-[(4-{[(2R or 2S)-2-methylmorpholin-4-yl]sulfonyl}phenyl)amino]-4-oxo-4,5-dihydro-1H-pyrazolo[4,3-c]pyridin-1-yl}tetrahydro-2H-pyran-4-carbonitrile] are 0.54 nM and 0.14 nM.
Turning to `CC1CCN1S(=O)(=O)c1ccc(Nc2nn([C@H]3COCC[C@@H]3C#N)c3cc[nH]c(=O)c23)cc1` (single isomer, unassigned) [Example 1-77, (3R,4S)-3-{3-[(4-{[(2R or 2S)-2-methylazetidin-1-yl]sulfonyl}phenyl)amino]-4-oxo-4,5-dihydro-1H-pyrazolo[4,3-c]pyridin-1-yl}tetrahydro-2H-pyran-4-carbonitrile], the IC50 on JAK2 (setting [1]) came out at 0.17 nM; at JAK1, 0.05 nM.
Taken in the same sequence, the figures for `CC1CCN1S(=O)(=O)c1ccc(Nc2nn([C@H]3COCC[C@@H]3C#N)c3cc[nH]c(=O)c23)cc1` (single isomer, unassigned) [Example 1-78, (3R,4S)-3-{3-[(4-{[(2S or 2R)-2-methylazetidin-1-yl]sulfonyl}phenyl)amino]-4-oxo-4,5-dihydro-1H-pyrazolo[4,3-c]pyridin-1-yl}tetrahydro-2H-pyran-4-carbonitrile] were 0.24 nM and 0.12 nM.
In the same order, the values of `N#C[C@H]1CCOC[C@@H]1n1nc(Nc2ccc(C(NC3CC3)C(F)(F)F)cc2)c2c(=O)[nH]ccc21` (single isomer, unassigned) [Example 1-80, (3R,4S)-3-[3-({4-[(1S or 1R)-1-(cyclopropylamino)-2,2,2-trifluoroethyl]phenyl}amino)-4-oxo-4,5-dihydro-1H-pyrazolo[4,3-c]pyridin-1-yl]tetrahydro-2H-pyran-4-carbonitrile] are 0.15 nM and 0.07 nM.
For the compound `N#C[C@H]1CCOC[C@@H]1n1nc(Nc2ccc(C(NC3CC3)C(F)(F)F)cc2)c2c(=O)[nH]ccc21` (single isomer, unassigned) [Example 1-81, (3R,4S)-3-[3-({4-[(1R or 1S)-1-(cyclopropylamino)-2,2,2-trifluoroethyl]phenyl}amino)-4-oxo-4,5-dihydro-1H-pyrazolo[4,3-c]pyridin-1-yl]tetrahydro-2H-pyran-4-carbonitrile], the IC50 on JAK2 (read-out: JAK2 IC50, recombinant GST-tagged catalytic domain, [ATP] 8.5 μM, unit not given (compound concentrations tested given in nM)) is 0.15 nM; at JAK1, 0.08 nM.
Turning to `CC(C)(C)CNC(c1ccc(Nc2nn([C@H]3COCC[C@@H]3C#N)c3cc[nH]c(=O)c23)cc1)C(F)(F)F` (single isomer, unassigned) [Example 1-82, (3R,4S)-3-{3-[(4-{[1S or 1R)-1-[(2,2-dimethylpropyl)amino]-2,2,2-trifluoroethyl}phenyl)amino]-4-oxo-4,5-dihydro-1H-pyrazolo[4,3-c]pyridin-1-yl} tetrahydro-2H-pyran-4-carbonitrile], the IC50 turned out to be 2.56 nM at JAK2 (setting [1]) and 0.87 nM at JAK1.
For the compound `CC(C)(C)CNC(c1ccc(Nc2nn([C@H]3COCC[C@@H]3C#N)c3cc[nH]c(=O)c23)cc1)C(F)(F)F` (single isomer, unassigned) [Example 1-83, (3R,4S)-3-{3-[(4-{(1R or 1S)-1-[(2,2-dimethylpropyl)amino]-2,2,2-trifluoroethyl}phenyl)amino]-4-oxo-4,5-dihydro-1H-pyrazolo[4,3-c]pyridin-1-yl} tetrahydro-2H-pyran-4-carbonitrile], the IC50 on JAK2 (setting [1]) was determined as 1.06 nM; on JAK1 it was 0.5 nM.
Consider `N#C[C@H]1CCOC[C@@H]1n1nc(Nc2ccc(C(NC3CCCC3)C(F)(F)F)cc2)c2c(=O)[nH]ccc21` (single isomer, unassigned) [Example 1-84, (3R,4S)-3-[3-({4-[(1S or 1R)-1-(cyclopentylamino)-2,2,2-trifluoroethyl]phenyl}amino)-4-oxo-4,5-dihydro-1H-pyrazolo[4,3-c]pyridin-1-yl]tetrahydro-2H-pyran-4-carbonitrile], for which the figures for the IC50 on JAK2 (setting [1]) and on JAK1 were 0.15 nM and 0.13 nM, respectively.
In the same order, the values of `N#C[C@H]1CCOC[C@@H]1n1nc(Nc2ccc(C(NC3CCCC3)C(F)(F)F)cc2)c2c(=O)[nH]ccc21` (single isomer, unassigned) [Example 1-85, (3R,4S)-3-[3-({4-[(1R or 1S)-1-(cyclopentylamino)-2,2,2-trifluoroethyl]phenyl}amino)-4-oxo-4,5-dihydro-1H-pyrazolo[4,3-c]pyridin-1-yl]tetrahydro-2H-pyran-4-carbonitrile] are 0.14 nM and 0.12 nM.
As to `CC1CCCN1C(c1ccc(Nc2nn([C@H]3COCC[C@@H]3C#N)c3cc[nH]c(=O)c23)cc1)C(F)(F)F` (single isomer, unassigned) [Example 1-86, (3R,4S)-3-{4-oxo-3-[(4-{(1R or 1S)-2,2,2-trifluoro-1-[(2S or 2R)-2-methylpyrrolidin-1-yl]ethyl}phenyl)amino]-4,5-dihydro-1H-pyrazolo[4,3-c]pyridin-1-yl}tetrahydro-2H-pyran-4-carbonitrile], the IC50 at JAK2 (setting [1]) was determined as 0.23 nM; on JAK1, 0.15 nM.
With `CC1CCCN1C(c1ccc(Nc2nn([C@H]3COCC[C@@H]3C#N)c3cc[nH]c(=O)c23)cc1)C(F)(F)F` (single isomer, unassigned) [Example 1-87, (3R,4S)-3-{4-oxo-3-[(4-{(1S or 1R)-2,2,2-trifluoro-1-[(2R or 2S)-2-methylpyrrolidin-1-yl]ethyl}phenyl)amino]-4,5-dihydro-1H-pyrazolo[4,3-c]pyridin-1-yl}tetrahydro-2H-pyran-4-carbonitrile], the IC50 came out at 0.3 nM on JAK2 (setting [1]) and 0.15 nM at JAK1.
Take `CC1CCCN1C(c1ccc(Nc2nn([C@H]3COCC[C@@H]3C#N)c3cc[nH]c(=O)c23)cc1)C(F)(F)F` (single isomer, unassigned) [Example 1-88, (3R,4S)-3-{4-oxo-3-[(4-{(1S or 1R)-2,2,2-trifluoro-1-[(2S or 2R)-2-methylpyrrolidin-1-yl]ethyl}phenyl)amino]-4,5-dihydro-1H-pyrazolo[4,3-c]pyridin-1-yl}tetrahydro-2H-pyran-4-carbonitrile]: the values for the IC50 at JAK2 (setting [1]) and on JAK1 were 0.09 nM and 0.11 nM, respectively.
Consider `CC1CCCN1C(c1ccc(Nc2nn([C@H]3COCC[C@@H]3C#N)c3cc[nH]c(=O)c23)cc1)C(F)(F)F` (single isomer, unassigned) [Example 1-89, (3R,4S)-3-{4-oxo-3-[(4-{(1R or 1S)-2,2,2-trifluoro-1-[(2R or 2S)-2-methylpyrrolidin-1-yl]ethyl}phenyl)amino]-4,5-dihydro-1H-pyrazolo[4,3-c]pyridin-1-yl}tetrahydro-2H-pyran-4-carbonitrile], for which the results for the IC50 at JAK2 (setting [1]) and at JAK1 were 0.14 nM and 0.15 nM, respectively.
With `CC(C)CNC(c1ccc(Nc2nn([C@H]3COCC[C@@H]3C#N)c3cc[nH]c(=O)c23)cc1)C(F)(F)F` (single isomer, unassigned) [Example 1-90, (3R,4S)-3-{4-oxo-3-[(4-{(1S or 1R)-2,2,2-trifluoro-1-[(2-methylpropyl)amino]ethyl}phenyl)amino]-4,5-dihydro-1H-pyrazolo[4,3-c]pyridin-1-yl}tetrahydro-2H-pyran-4-carbonitrile], the results for the IC50 on JAK2 (setting [1]) and on JAK1 were 0.4 nM and 0.21 nM, respectively.
Take `CC(C)CNC(c1ccc(Nc2nn([C@H]3COCC[C@@H]3C#N)c3cc[nH]c(=O)c23)cc1)C(F)(F)F` (single isomer, unassigned) [Example 1-91, (3R,4S)-3-{4-oxo-3-[(4-{(1R or 1S)-2,2,2-trifluoro-1-[(2-methylpropyl)amino]ethyl}phenyl)amino]-4,5-dihydro-1H-pyrazolo[4,3-c]pyridin-1-yl}tetrahydro-2H-pyran-4-carbonitrile]: the IC50 at JAK2 (setting [1]) came to 0.21 nM; at JAK1 it was 0.17 nM.
Taken in the same sequence, the figures for `N#C[C@H]1CCOC[C@@H]1n1nc(Nc2ccc(C(NC3CCC3)C(F)(F)F)cc2)c2c(=O)[nH]ccc21` (single isomer, unassigned) [Example 1-92, (3R,4S)-3-[3-({4-[(1S or 1R)-1-(cyclobutylamino)-2,2,2-trifluoroethyl]phenyl}amino)-4-oxo-4,5-dihydro-1H-pyrazolo[4,3-c]pyridin-1-yl]tetrahydro-2H-pyran-4-carbonitrile] were 0.19 nM and 0.13 nM.
